ChEMBL document CHEMBL4130348, “Structure-activity relationship investigation for benzonaphthyridinone derivatives as novel potent Bruton's tyrosine kinase (BTK) irreversible inhibitors” (Eur J Med Chem, 2017)

Legend:
[1] = Antiproliferative activity against mouse BA/F3 cells after 72 hrs by CellTiter-Glo assay; format: cell-based, BaF3
[2] = target: Epidermal growth factor receptor (Homo sapiens) (UniProt P00533); assay: Inhibition of TEL-fused EGFR (unknown origin) expressed in mouse BA/F3 cells after 72 hrs by CellTiter-Glo assay; format: cell-based
[3] = test system: Epidermal growth factor receptor (Homo sapiens), P00533 [T790M]; assay: Inhibition of TEL-fused EGFR T790M mutant (unknown origin) expressed in mouse BA/F3 cells after 72 hrs by CellTiter-Glo assay; format: cell-based
[4] = test system: Epidermal growth factor receptor (Homo sapiens), P00533 [L858R,T790M]; assay: Inhibition of TEL-fused EGFR T790M/L858R mutant (unknown origin) expressed in mouse BA/F3 cells after 72 hrs by CellTiter-Glo assay; format: cell-based
[5] = target: Tyrosine-protein kinase JAK2 (Homo sapiens) (UniProt O60674); assay: Inhibition of TEL-fused JAK2 (unknown origin) expressed in mouse BA/F3 cells after 72 hrs by CellTiter-Glo assay; format: cell-based
HCT-116 = assay: Antiproliferative activity against human HCT116 cells after 72 hrs by CellTiter-Glo assay; format: functional; details: HCT-116, 72 h
A-431 = assay: Antiproliferative activity against human A431 cells after 72 hrs by CellTiter-Glo assay; format: functional; details: A-431, 72 h
NCI-H460 = assay: Antiproliferative activity against human NCI-H460 cells after 72 hrs by CellTiter-Glo assay; format: functional; details: NCI-H460, 72 h
A549 = assay: Antiproliferative activity against human A549 cells after 72 hrs by CellTiter-Glo assay; format: functional; details: A549, 72 h
NCI-H358 = assay: Antiproliferative activity against human NCI-H358 cells after 72 hrs by CellTiter-Glo assay; format: functional; details: NCI-H358, 72 h
NCI-H1975 = assay: Antiproliferative activity against human NCI-H1975 cells after 72 hrs by CellTiter-Glo assay; format: functional; details: NCI-H1975, 72 h
HeLa = assay: Antiproliferative activity against human HeLa cells after 72 hrs by CellTiter-Glo assay; format: functional
DU-145 = assay: Antiproliferative activity against human DU145 cells after 72 hrs by CellTiter-Glo assay; format: functional; details: DU-145, 72 h
[6] = Antiproliferative activity against human RV1 cells after 72 hrs by CellTiter-Glo assay; format: functional; details: RV-1, 72 h
LNCaP C4-2 = assay: Antiproliferative activity against human C4-2 cells after 72 hrs by CellTiter-Glo assay; format: functional; details: LNCaP C4-2, 72 h
U2932 = assay: Antiproliferative activity against human U2932 cells after 72 hrs by CellTiter-Glo assay; format: functional; details: U2932, 72 h
Pfeiffer = assay: Antiproliferative activity against human Pfeiffer cells after 72 hrs by CellTiter-Glo assay; format: functional
Ramos = assay: Antiproliferative activity against human Ramos cells after 72 hrs by CellTiter-Glo assay; format: functional
NAMALVA = assay: Antiproliferative activity against human NAMALWA cells after 72 hrs by CellTiter-Glo assay; format: functional
NALM-6 = assay: Antiproliferative activity against human NALM6 cells after 72 hrs by CellTiter-Glo assay; format: functional; details: NALM-6, 72 h
U-937 = assay: Antiproliferative activity against human U937 cells after 72 hrs by CellTiter-Glo assay; format: functional; details: U-937, 72 h
[7] = Antiproliferative activity against human PF138 cells after 72 hrs by CellTiter-Glo assay; format: functional
MOLM-13 = assay: Antiproliferative activity against human MOLM13 cells after 72 hrs by CellTiter-Glo assay; format: functional; details: MOLM-13, 72 h
MOLM-14 = assay: Antiproliferative activity against human MOLM14 cells after 72 hrs by CellTiter-Glo assay; format: functional; details: MOLM-14, 72 h
[8] = Antiproliferative activity against human MOLM16 cells after 72 hrs by CellTiter-Glo assay; format: functional; details: MOLM16, 72 h
HEL = assay: Antiproliferative activity against human HEL cells after 72 hrs by CellTiter-Glo assay; format: functional
SKM-1 = assay: Antiproliferative activity against human SKM1 cells after 72 hrs by CellTiter-Glo assay; format: functional; details: SKM-1, 72 h
NB-4 = assay: Antiproliferative activity against human NB4 cells after 72 hrs by CellTiter-Glo assay; format: functional; details: NB-4, 72 h
HL-60 = assay: Antiproliferative activity against human HL60 cells after 72 hrs by CellTiter-Glo assay; format: functional; details: HL-60, 72 h
CMK = assay: Antiproliferative activity against human CMK cells after 72 hrs by CellTiter-Glo assay; format: functional
OCI-AML2 = assay: Antiproliferative activity against human OCI-AML2 cells after 72 hrs by CellTiter-Glo assay; format: functional; details: OCI-AML2, 72 h
Rec1 = assay: Antiproliferative activity against human Rec1 cells after 72 hrs by CellTiter-Glo assay; format: functional; details: Rec1, 72 h
JVM-2 = assay: Antiproliferative activity against human JVM2 cells after 72 hrs by CellTiter-Glo assay; format: functional; details: JVM-2, 72 h
cells [9] = format: functional; details: Homo sapiens, CLL cell, 72 h
cells [10] = format: functional; details: Homo sapiens, CLL cell, 72 h; remark: listed apart in the source
cells [11] = format: functional; details: Homo sapiens, CLL cell, 72 h; remark: listed apart in the source
[12] = test system: Tyrosine-protein kinase JAK3; assay: Inhibition of TEL-fused JAK3 (unknown origin) expressed in mouse BA/F3 cells after 72 hrs by CellTiter-Glo assay; details: Homo sapiens

Epidermal growth factor receptor (Homo sapiens), P00533 [L858R,T790M], sequence (P00533 whole entry T790M/L858R, looked up, the tested form may be a part): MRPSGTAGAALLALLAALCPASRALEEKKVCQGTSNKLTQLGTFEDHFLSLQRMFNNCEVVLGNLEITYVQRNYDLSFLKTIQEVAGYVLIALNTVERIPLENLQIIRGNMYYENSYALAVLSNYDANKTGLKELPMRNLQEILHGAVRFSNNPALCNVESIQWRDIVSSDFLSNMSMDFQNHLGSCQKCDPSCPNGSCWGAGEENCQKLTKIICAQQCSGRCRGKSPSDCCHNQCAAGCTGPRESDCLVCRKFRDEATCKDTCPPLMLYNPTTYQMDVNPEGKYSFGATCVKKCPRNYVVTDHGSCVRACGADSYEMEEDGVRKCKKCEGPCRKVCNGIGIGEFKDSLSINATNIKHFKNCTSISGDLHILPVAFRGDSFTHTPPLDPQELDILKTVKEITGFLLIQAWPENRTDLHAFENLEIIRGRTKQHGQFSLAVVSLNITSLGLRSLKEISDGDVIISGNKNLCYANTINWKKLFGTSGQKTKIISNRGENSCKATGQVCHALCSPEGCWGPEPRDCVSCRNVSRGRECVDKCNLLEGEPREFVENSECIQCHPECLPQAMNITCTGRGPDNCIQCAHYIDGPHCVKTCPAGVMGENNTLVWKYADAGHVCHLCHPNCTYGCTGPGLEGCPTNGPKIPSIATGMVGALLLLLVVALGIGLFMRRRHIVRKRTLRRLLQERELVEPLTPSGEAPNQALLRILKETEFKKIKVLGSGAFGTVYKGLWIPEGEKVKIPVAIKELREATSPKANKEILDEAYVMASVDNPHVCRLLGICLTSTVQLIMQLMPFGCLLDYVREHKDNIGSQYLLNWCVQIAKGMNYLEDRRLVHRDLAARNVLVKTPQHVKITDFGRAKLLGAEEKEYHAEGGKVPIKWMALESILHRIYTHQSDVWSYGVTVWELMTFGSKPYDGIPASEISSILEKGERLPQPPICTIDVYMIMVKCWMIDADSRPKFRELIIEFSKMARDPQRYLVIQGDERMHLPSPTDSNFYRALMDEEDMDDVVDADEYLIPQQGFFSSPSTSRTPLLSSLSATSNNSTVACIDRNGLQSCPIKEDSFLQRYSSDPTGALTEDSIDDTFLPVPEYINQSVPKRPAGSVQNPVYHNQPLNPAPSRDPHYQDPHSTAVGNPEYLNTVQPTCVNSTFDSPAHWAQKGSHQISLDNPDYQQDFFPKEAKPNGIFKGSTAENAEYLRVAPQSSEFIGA
Epidermal growth factor receptor (Homo sapiens), P00533 [T790M], sequence (P00533 whole entry T790M, the tested form may be a part): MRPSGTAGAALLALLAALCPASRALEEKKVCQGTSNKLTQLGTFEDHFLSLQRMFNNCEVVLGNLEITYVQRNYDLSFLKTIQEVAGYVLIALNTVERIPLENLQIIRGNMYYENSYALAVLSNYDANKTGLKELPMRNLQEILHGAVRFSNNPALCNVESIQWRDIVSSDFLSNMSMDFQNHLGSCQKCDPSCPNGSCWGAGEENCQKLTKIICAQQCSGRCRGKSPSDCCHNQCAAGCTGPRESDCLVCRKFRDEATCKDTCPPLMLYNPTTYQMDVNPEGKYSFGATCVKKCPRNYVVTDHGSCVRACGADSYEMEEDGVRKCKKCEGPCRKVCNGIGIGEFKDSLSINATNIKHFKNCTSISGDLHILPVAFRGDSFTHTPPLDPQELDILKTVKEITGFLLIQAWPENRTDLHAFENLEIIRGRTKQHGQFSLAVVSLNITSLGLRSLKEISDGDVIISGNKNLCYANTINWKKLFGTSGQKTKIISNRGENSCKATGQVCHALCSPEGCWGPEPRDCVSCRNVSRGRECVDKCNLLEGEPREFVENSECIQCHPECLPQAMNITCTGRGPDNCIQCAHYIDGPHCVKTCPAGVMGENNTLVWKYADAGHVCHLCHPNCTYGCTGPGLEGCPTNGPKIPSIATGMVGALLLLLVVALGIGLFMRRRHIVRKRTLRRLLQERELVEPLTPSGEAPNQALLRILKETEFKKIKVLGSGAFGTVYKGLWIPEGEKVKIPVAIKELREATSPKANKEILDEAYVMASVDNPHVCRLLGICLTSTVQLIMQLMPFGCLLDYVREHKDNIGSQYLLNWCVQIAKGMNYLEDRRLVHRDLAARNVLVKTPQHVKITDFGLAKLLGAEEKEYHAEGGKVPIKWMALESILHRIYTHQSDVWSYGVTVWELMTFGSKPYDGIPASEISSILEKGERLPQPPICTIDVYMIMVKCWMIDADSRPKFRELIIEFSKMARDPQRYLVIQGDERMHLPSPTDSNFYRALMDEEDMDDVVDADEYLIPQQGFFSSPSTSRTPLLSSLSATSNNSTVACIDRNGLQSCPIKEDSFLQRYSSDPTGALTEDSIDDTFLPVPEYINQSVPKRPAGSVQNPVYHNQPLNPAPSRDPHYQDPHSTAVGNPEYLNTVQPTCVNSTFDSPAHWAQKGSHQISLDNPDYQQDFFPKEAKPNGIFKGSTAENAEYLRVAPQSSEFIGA
Tyrosine-protein kinase JAK2 (Homo sapiens), sequence (O60674 whole entry, the tested form may be a part): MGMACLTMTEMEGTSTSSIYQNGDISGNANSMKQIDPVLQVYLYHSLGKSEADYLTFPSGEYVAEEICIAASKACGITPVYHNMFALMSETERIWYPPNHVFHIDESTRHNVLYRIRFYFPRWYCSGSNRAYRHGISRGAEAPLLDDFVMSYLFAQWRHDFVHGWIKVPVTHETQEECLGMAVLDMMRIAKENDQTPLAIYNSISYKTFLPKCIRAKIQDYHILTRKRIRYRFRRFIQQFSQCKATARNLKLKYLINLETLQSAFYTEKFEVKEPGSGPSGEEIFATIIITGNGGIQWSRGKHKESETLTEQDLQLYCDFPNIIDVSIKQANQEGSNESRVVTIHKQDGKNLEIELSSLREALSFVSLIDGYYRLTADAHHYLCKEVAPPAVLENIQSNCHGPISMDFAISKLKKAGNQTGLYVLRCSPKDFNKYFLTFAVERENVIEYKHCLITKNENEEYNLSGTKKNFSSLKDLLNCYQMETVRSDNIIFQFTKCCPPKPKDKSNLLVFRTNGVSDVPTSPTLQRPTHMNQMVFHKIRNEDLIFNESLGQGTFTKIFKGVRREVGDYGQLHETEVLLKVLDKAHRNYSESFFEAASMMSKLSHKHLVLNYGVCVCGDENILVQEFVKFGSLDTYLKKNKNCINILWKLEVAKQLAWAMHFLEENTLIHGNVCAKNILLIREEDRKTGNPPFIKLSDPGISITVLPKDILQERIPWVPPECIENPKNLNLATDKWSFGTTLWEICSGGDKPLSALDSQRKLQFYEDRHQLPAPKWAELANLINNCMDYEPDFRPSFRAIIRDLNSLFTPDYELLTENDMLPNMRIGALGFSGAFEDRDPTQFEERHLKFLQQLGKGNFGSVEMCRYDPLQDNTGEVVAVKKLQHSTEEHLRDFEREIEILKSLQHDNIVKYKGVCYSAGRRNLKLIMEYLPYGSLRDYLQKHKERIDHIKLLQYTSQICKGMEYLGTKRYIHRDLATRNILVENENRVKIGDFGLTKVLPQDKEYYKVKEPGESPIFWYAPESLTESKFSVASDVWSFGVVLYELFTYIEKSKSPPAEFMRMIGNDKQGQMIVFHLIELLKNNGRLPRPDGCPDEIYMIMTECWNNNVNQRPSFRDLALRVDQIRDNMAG
Epidermal growth factor receptor (Homo sapiens), sequence (P00533 whole entry, the tested form may be a part): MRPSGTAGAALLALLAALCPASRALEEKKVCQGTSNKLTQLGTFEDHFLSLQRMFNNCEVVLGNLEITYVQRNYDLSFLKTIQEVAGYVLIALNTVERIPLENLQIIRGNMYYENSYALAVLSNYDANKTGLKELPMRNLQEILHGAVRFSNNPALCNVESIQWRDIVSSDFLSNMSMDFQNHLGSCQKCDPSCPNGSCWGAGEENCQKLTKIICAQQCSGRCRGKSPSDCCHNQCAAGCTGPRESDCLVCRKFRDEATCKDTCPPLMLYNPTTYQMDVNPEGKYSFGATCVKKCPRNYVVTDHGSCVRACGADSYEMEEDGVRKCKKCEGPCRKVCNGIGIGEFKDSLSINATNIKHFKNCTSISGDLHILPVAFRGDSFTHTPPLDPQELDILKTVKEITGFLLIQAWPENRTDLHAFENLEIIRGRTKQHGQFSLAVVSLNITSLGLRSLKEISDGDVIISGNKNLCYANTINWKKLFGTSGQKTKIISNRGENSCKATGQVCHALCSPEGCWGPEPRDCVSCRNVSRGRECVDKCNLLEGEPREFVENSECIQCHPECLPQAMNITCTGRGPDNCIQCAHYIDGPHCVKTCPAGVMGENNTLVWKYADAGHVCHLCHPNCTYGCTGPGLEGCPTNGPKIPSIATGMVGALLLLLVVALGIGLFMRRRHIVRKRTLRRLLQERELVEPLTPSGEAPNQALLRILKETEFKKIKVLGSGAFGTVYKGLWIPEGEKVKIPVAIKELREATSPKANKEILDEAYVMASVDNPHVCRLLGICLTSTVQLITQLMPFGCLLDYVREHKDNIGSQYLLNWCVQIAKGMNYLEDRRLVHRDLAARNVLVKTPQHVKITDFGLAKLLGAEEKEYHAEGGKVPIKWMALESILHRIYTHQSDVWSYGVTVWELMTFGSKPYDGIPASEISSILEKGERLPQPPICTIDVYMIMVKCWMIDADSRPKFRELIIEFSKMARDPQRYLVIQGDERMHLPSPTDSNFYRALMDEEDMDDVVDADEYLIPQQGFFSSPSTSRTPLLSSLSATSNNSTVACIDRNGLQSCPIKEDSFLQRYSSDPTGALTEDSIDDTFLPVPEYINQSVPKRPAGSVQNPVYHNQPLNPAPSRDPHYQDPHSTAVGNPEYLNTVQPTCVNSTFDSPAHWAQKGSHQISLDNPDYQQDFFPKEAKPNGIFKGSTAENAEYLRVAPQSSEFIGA

Structure (SMILES)	GI50 at 72 h [1]	GI50 [2]	GI50 [3]	GI50 [4]	GI50 [5]	GI50 (HCT-116)	GI50 (A-431)	GI50 (NCI-H460)	GI50 (A549)	GI50 (NCI-H358)	GI50 (NCI-H1975)	GI50 (HeLa)	GI50 (DU-145)	GI50 [6]	GI50 (LNCaP C4-2)	GI50 (U2932)	GI50 (Pfeiffer)	GI50 (Ramos)	GI50 (NAMALVA)	GI50 (NALM-6)	other results
CCC(=O)Nc1cc(-n2c(=O)ccc3cnc4ccc(-n5cccn5)cc4c32)ccc1C	> 10 µM	> 10 µM	> 10 µM	> 10 µM	> 10 µM	> 10 µM	> 10 µM	> 10 µM	> 10 µM	> 10 µM	> 10 µM	> 10 µM	> 10 µM	> 10 µM	> 10 µM	> 10 µM	> 10 µM	> 10 µM	> 10 µM	> 10 µM	GI50 (U-937): > 10 µM; GI50 [7]: > 10 µM; GI50 (MOLM-13): > 10 µM; GI50 (MOLM-14): > 10 µM; GI50 [8]: > 10 µM; GI50 (HEL): > 10 µM; GI50 (SKM-1): > 10 µM; GI50 (NB-4): > 10 µM; GI50 (HL-60): > 10 µM; GI50 (CMK): > 10 µM; GI50 (OCI-AML2): > 10 µM; GI50 (Rec1): > 10 µM; GI50 (JVM-2): > 10 µM; GI50 (cells [9]): > 10 µM; GI50 (cells [10]): > 10 µM; GI50 (cells [11]): > 10 µM; GI50 [12]: > 10 µM
C=CC(=O)Nc1cc(-n2c(=O)ccc3cnc4ccc(-n5cccn5)cc4c32)ccc1C	> 10 µM	2.66 µM	0.918 µM	1.59 µM	2.1 µM	> 10 µM	5.1 µM	> 10 µM	3.7 µM	> 10 µM	5.57 µM	> 10 µM	> 10 µM	> 10 µM	> 10 µM	7.9 µM	5.8 µM	3.5 µM	4.5 µM	1.17 µM	GI50 (U-937): > 10 µM; GI50 [7]: 8.8 µM; GI50 (MOLM-13): 0.59 µM; GI50 (MOLM-14): 1.5 µM; GI50 [8]: 1.4 µM; GI50 (HEL): 1.8 µM; GI50 (SKM-1): 2.5 µM; GI50 (NB-4): 3.7 µM; GI50 (HL-60): 3.8 µM; GI50 (CMK): 4.3 µM; GI50 (OCI-AML2): 7.8 µM; GI50 (Rec1): 1.6 µM; GI50 (JVM-2): 3.4 µM; GI50 (cells [9]): 10.3 µM; GI50 (cells [10]): 3.7 µM; GI50 (cells [11]): 2.4 µM; GI50 [12]: 9.67 µM
